In US6953810B2, “Nicotinamide biaryl derivatives useful as inhibitors of PDE4 isozymes” (Pfizer Inc, priority 2001, dated 2005):
“Also recorded” adds a separate entry of the source.

Assays:
[1] = in vivo; cited from earlier work
[2] = system: late reactions to inhaled allergen; conditions: oral 15 and 30 mg, 9.5 days; cited from earlier work
[3] = system: catalytic site (Sc) of PDE4; conditions: cited from earlier work
[4] = system: antigen-induced lung eosinophilia; conditions: rat; cited from earlier work
[5] = system: rhinorrhea; conditions: in vivo; cited from earlier work
[6] = system: ex vivo TNF release and lymphocyte proliferation; conditions: oral dose of 300 mg; cited from earlier work
[7] = system: tumor cells; conditions: at micromolar concentrations; cited from earlier work
[8] = system: guinea-pig trachea; conditions: cited from earlier work
[9] = system: lung, BAL, airway and pleural eosinophilia; conditions: guinea-pig; cited from earlier work
[10] = system: airway hyper-responsiveness (AHR); conditions: guinea-pig; PAF-, ozone- or ACh-induced; cited from earlier work
[11] = system: antigen-induced bronchoconstriction; conditions: guinea-pig; cited from earlier work
[12] = system: SCW-induced arthritis; conditions: in vivo; cited from earlier work
[13] = system: rheumatoid arthritis patients; design: dose or concentration left out as unconfirmed; conditions: 35 patients; cited from earlier work
[14] = system: psoriatic epidermal slices; conditions: psoriatic and keratomed psoriatic epidermal slices; cited from earlier work
[15] = system: psoriatic lesions; conditions: two double-blind studies; cited from earlier work
[16] = system: patients; conditions: oral 5, 10, and 15 mg b.i.d., week 2; cited from earlier work
[17] = system: lipopolysaccharide-induced mesenteric blood flow fall; conditions: dog, in vivo; cited from earlier work
[18] = system: human peripheral blood mononuclear cells (HPBM); conditions: normal patients and subjects with atopic dermatitis; cited from earlier work
[19] = system: bone marrow culture; conditions: cited from earlier work
[20] = system: isolated pulmonary artery rings; conditions: cited from earlier work
[21] = system: collagen II induced arthritis; conditions: 3 mg/kg twice daily when arthritis was apparent; cited from earlier work
[22] = system: experimental allergic encephalomyelitis; conditions: marmoset; cited from earlier work
[23] = system: chronic relapsing experimental allergic encephalomyelitis; conditions: SJL mice; cited from earlier work

Nc1nc2c([nH]1)c(=O)n(CC1CC1)c(=O)n2CC1CC1 [BRL-61,063, cipamfylline]
emesis, nausea, vomiting [1]: adverse events of nausea and vomiting

COc1ccc([C@H](Cc2ccncc2)c2ccccc2)cc1OC1CCCC1 [CDP840]
late reactions / late-phase response to inhaled allergen [2]: suppression; also recorded: significant inhibition
emesis, nausea, vomiting [1]: without any adverse events of nausea or headache
potency at the Sc compared with SB-207,499 [3]: significantly higher potency

Cc1cc2c3c(c1)C(c1ccccc1)=N[C@@H](NC(=O)c1ccncc1)C(=O)N3CC2 [CI-1018]
oral potency ED50 [4]: 5 mg/kg

COc1ccc(C2CNC(=O)NC2)cc1O[C@H]1C[C@@H]2CC[C@H]1C2 [CP-80,633, atizoram]
emesis, nausea, vomiting [1]: elicit emesis

O=C(O)c1cccc(-c2ccc(CNC(=O)c3cccnc3Oc3ccc(F)cc3)cc2)c1 [Example 1, 4′-[[[2-[4-Fluorophenoxyl]-pyridine-3-carbonyl]-amino]-methyl]-biphenyl-3-carboxylic acid]
melting point: 184 to 186 °C

O=C(O)c1cccc(-c2ccc(CNC(=O)c3cccnc3Oc3ccc4c(c3)OCO4)c(F)c2)c1 [Example 3]
melting point: 190 to 192 °C

N#Cc1cccc(Oc2ncccc2C(=O)NCc2ccc(-c3cccc(C(=O)O)c3)cc2F)c1 [Example 4, 4′-[[[2-[3-Cyano-phenoxy]-pyridine-3-carbonyl]-amino]-methyl]-biphenyl-3′-fluoro-biphenyl-3-carboxylic acid]
melting point: 200 to 202 °C

CCCC1C(=O)C2=C(C(CC)=NC2C)c2nc(OC)ccc21 [Example D-22888]
rhinorrhea in the antigen-challenged pig [5]: inhibit rhinorrhea

CCNc1ncn(Cc2ccc(OC)c(OC3CCCC3)c2)c2nc(C(C)C)nc1-2 [Example V-11294A]
reduction of TNF levels and lymphocyte proliferation [6]: effective

Clc1nc2c(N3CCCC3)nc(N3CCNCC3)nc2nc1NCc1ccccc1 [Formula (0.0.55)]
inhibition of growth of tumor cells [7]: inhibit the growth of tumor cells

O=S1(=O)CCN(c2nc(NC3CC3)nc(C3CC3)n2)C1 [Formula (0.0.56)]
relaxation in a guinea-pig trachea model [8]: potent relaxant agents

CC1CC1c1nc(NC2CC2)nc(N2CCOCC2)n1 (stereo not drawn) [Formula (0.0.57)]
relaxation in a guinea-pig trachea model [8]: potent relaxant agents

O=c1c2[nH]cnc2c2cccnc2n1-c1ccccc1 [KF17625]
inhibition of antigen-induced lung, BAL or airway eosinophilia [9]: activity
inhibition of airway hyper-responsiveness (AHR) [10]: activity
inhibition of antigen-induced bronchoconstriction [11]: activity

O=c1c2c(ncn2Cc2cccnc2)c2cccnc2n1-c1ccccc1 [KF19514]
inhibition of antigen-induced lung, BAL or airway eosinophilia [9]: activity
inhibition of airway hyper-responsiveness (AHR) [10]: activity
inhibition of antigen-induced bronchoconstriction [11]: activity

COc1ccc(C(=O)Nc2c(Cl)cncc2Cl)cc1OC1CCCC1 [RP73401]
disease in SCW-induced arthritis (joint destruction, synovitis, fibrosis) [12]: significant amelioration of disease
clinical improvement with reduction in C-reactive protein and IL-6 serum levels [13]: positive trend towards clinical improvement

COc1ccc(C(=O)Nc2c(Cl)cncc2Cl)cc1OC1CCCC1 [RP-73,401, piclamilast]
inhibition of IL-5 induced pleural eosinophila [9]: active
inhibition of antigen-induced lung, BAL or airway eosinophilia [9]: active
inhibition of airway hyper-responsiveness (AHR) [10]: active
emesis, nausea, vomiting [1]: elicit emesis

O=c1c2cccnc2n(-c2cccc([N+](=O)[O-])c2)c(=O)n1Cc1ccncc1 [RS-23,544]
emesis, nausea, vomiting [1]: elicit emesis

COc1ccc(CC2CNC(=O)N2)cc1OC1CCCC1 (stereo not drawn) [Ro 20-1724]
elevation of cAMP concentrations over controls [14]: very marked elevation
psoriatic lesions versus vehicle [15]: improve psoriatic lesions

COc1ccc([C@]2(C#N)CC[C@@H](C(=O)O)CC2)cc1OC1CCCC1 [SB-207,499]
trough FEV1 versus placebo [16]: significant increases

CCCCn1c(=O)c2c(ncn2CC(C)=O)n(CCCC)c1=O [denbufylline]
potency relative to pentoxifylline in inhibiting lipopolysaccharide-induced mesenteric blood flow fall [17]: 100 fold
inhibition of proliferation of HPBM [18]: concentration-related inhibition
mineralized nodules in bone marrow culture [19]: increase in the number of mineralized nodules

Cc1[nH]c(=O)c(C#N)cc1-c1ccncc1 [milrinone]
effect on relaxant activities of isoproterenol and forskolin [20]: same effect

COc1ccc(C2CNC(=O)C2)cc1OC1CCCC1 (stereo not drawn) [rolipram]
development of disease [21]: progression of severity was halted
inhibition of proliferation of HPBM [18]: concentration-related inhibition
clinical signs of EAE [22]: suppress the appearance of clinical signs
clinical signs and pathological changes of chronic relapsing EAE [23]: ameliorates clinical signs and pathological changes
effect on relaxant activities of isoproterenol and forskolin [20]: potentiates the relaxant activities of isoproterenol and forskolin
